{
  "source": "patent US10864163B2",
  "about": "“Therapeutic agents and delivery with microspheres” (UCL Business PLC, priority 2013, dated 2020)",
  "key": {"[1]": {"experiment": "Attachment of API (doxorubicin) to wetted and non-wetted TIPS microspheres", "format": "physicochemical", "settings": "doxorubicin 0.5 mg/ml in water, overnight at room temperature, 150 rpm, centrifuged at 13000 rpm for 20 seconds", "protocol": "100 mg of TIPS microspheres was added to a 7 ml plastic container. The microspheres were wetted with 70% ethanol for 1 minute. The alcohol was removed and the microspheres washed with 5 ml deionised water. 1 ml of doxorubicin (0.5 mg/ml in water) was added to the container. The microspheres and doxorubicin solution were mixed by pipetting and incubated overnight at room temperature with agitation at 150 rpm on an orbital shaker. Control non-wetted microspheres were treated in the same manner. The microspheres were centrifuged at 13000 rpm for 20 seconds."}, "[2]": {"experiment": "Release of API from doxorubicin-loaded wetted TIPS microspheres (FIG. 11d)", "format": "physicochemical", "settings": "doxorubicin attached to pre-wetted TIPS microspheres"}},
  "note": "“Also recorded” adds a separate entry of the source.",
  "data": [
    {"smiles": "COc1cccc2c1C(=O)c1c(O)c3c(c(O)c1C2=O)C[C@@](O)(C(=O)CO)C[C@@H]3O[C@H]1C[C@H](N)[C@H](O)[C@H](C)O1", "note": "[doxorubicin]", "values": [
      {"measurement": "binding of doxorubicin to the surface of non-wetted, hydrophobic microspheres", "setting": "[1]; control non-wetted microspheres", "value": "separated from the non-wetted samples; also recorded: does not bind to the surface of non-wetted, hydrophobic microspheres"},
      {"measurement": "binding of doxorubicin to the surface of wetted TIPS microspheres", "setting": "[1]; microspheres pre-wetted with 70% ethanol", "value": "remained bound to the surface of the wetted microspheres; also recorded: binds well to the surface of pre-wetted TIPS microspheres"},
      {"measurement": "release of the API from wetted TIPS microspheres", "setting": "[2]", "value": "controlled release of the API is observed over a prolonged period"}
    ]}
  ]
}
